Activity calls are given as the source filed them. The rule behind the calls is not given here.
Assays:
[1] = tested on: Saccharomyces cerevisiae; assay: Effect on Saccharomyces cerevisiae TDH2 up to 500 uM
[2] = tested on: Saccharomyces cerevisiae; assay: Effect on Saccharomyces cerevisiae TDH3 up to 500 uM
[3] = tested on: Saccharomyces cerevisiae; assay: Effect on Saccharomyces cerevisiae TDH1 up to 500 uM

| SMILES | Activity [1] | Activity [2] | Activity [3] |
| --- | --- | --- | --- |
| Cc1ccc2c(c1)c(=O)c(C(=O)O)cn2[C@@H]1O[C@H](CO)[C@@H](O)[C@H]1O | inactive | inactive | inactive |
| Cc1ccc2c(=O)c(C(=O)O)cn([C@@H]3O[C@H](CO)[C@@H](O)[C@H]3O)c2c1 | inactive | inactive | inactive |
| O=C(O)c1cn([C@@H]2O[C@H](CO)[C@@H](O)[C@H]2O)c2cc(Br)ccc2c1=O | inactive | inactive | inactive |
| O=C(O)c1cn([C@@H]2O[C@H](CO)[C@@H](O)[C@H]2O)c2ccc(Cl)cc2c1=O | inactive | inactive | inactive |
| O=C(O)c1cn([C@@H]2O[C@H](CO)[C@@H](O)[C@H]2O)c2ccc(Br)cc2c1=O | inactive | inactive | inactive |

Now from value to compound:

| Activity [1] | Activity [2] | Activity [3] | SMILES |
| --- | --- | --- | --- |
| inactive | inactive | inactive | COc1ccc2c(=O)c(C(=O)O)cn([C@@H]3O[C@H](CO)[C@@H](O)[C@H]3O)c2c1 |
| inactive | inactive | inactive | COc1ccc2c(c1)c(=O)c(C(=O)O)cn2[C@@H]1O[C@H](CO)[C@@H](O)[C@H]1O |

Source: ChEMBL document CHEMBL2407047, “Molecular design, synthesis and biological evaluation of 1,4-dihydro-4-oxoquinoline ribonucleosides as TcGAPDH inhibitors with trypanocidal activity” (Bioorg Med Chem Lett, 2013)
